Experimental data published in US11130960B2, “Methods for conferring or enhancing herbicide resistance on plants and/or alga with protoporphyrinogen oxidase variants” (FARM HANNONG CO., LTD., priority 2014, dated 2021).
“Also recorded” adds a separate entry of the source.

Legend:
CyPPO2 transformants = assay: Seed germination / growth on ½ MS medium containing herbicide; format: in vivo, Arabidopsis thaliana; details: for germination / growth on herbicide medium after 2 weeks: ½ MS medium with 70 nM Tiafenacil
Procedure: (§1) To examine tiafenacil resistance of T2 generation seeds which survived under treatment of 1 μM tiafenacil, among the CyPPO2 and CyPPO8 transformants, Arabidopsis thaliana seeds were sown in ½ MS medium (1.125 g/L of MS salt, 10 g/L of sucrose, 7 g/L of Agar) containing 70 nM tiafenacil. […] Therefore, survival under 70 nM tiafenacil means that a plant has resistance against tiafenacil.
(§2) In Arabidopsis thaliana transformant including CyPPO2 or CyPPO8 gene, which was obtained by transformation using the plant transformation vector prepared in Example 6, the PPO activity-inhibiting herbicide-resistant gene and glufosinate-resistant gene are expressed at the same time. Therefore, it was examined whether cross-treatment of Arabidopsis thaliana transformant with two herbicides, namely, PPO activity-inhibiting herbicide and glufosinate is effective for weed control. To this end, seeds of CyPPO2 and BAR gene-inserted Arabidopsis thaliana transformant, or CyPPO8 and BAR gene-inserted Arabidopsis thaliana transformant were sterilized and treated at low temperature of 4° C. for 2 days. The seeds were sown in a ½ MS medium (Duchefa), a ½MS medium containing 70 nM Tiafenacil, a ½MS medium containing 50 uM glufosinate, or a ½MS medium containing 70 nM Tiafenacil and 50 uM glufosinate, and grown at 23° C. under 16 hour-light/8 hour-dark conditions for 7-14 days. Arabidopsis thaliana on the herbicide media was CyPPO2 or CyPPO8-transformed seed and the wild-type Col0 as a control, respectively. The transformant and the control were cultured on herbicide media. After 2 weeks, they were examined.
(§3) In Example 9, it was confirmed that Arabidopsis thaliana transformant prepared in the present invention has resistance against the two PPO-based herbicides, Tiafenacil and Saflufenacil at the same time, and therefore, it was tested whether the cross-treatment of Arabidopsis thaliana transformant with Tiafenacil and Saflufenacil is effective for weed control. To this end, seeds of CyPPO2 or CyPPO8 gene-inserted Arabidopsis thaliana transformant were sterilized and treated at low temperature of 4° C. for 2 days. The seeds were sown in a ½ MS medium, a ½MS medium containing 70 nM Tiafenacil, a ½MS medium containing 70 nM Saflufenacil, or a ½MS medium containing 35 nM Tiafenacil and 35 nM Saflufenacil, and grown at 23° C. under 16 hour-light/8 hour-dark conditions for 7-14 days. Arabidopsis thaliana on the herbicide media was CyPPO2 or CyPPO8-transformed seed and the wild-type Col0 as a control, respectively. The transformant and the control were cultured on herbicide media. After 2 weeks, they were examined.

CyPPO8 transformants = assay: as above; format: in vivo, Arabidopsis thaliana; details: for germination / growth on herbicide medium after 2 weeks: ½ MS medium with 70 nM Tiafenacil
Procedure: as §1, §2, §3

[1] = test system: wild-type Arabidopsis thaliana (Col-0); assay: as above; format: in vivo; details: for germination / growth on herbicide medium after 2 weeks: ½ MS medium with 70 nM Tiafenacil
Procedure: as §1, §2, §3

CyPPO8 = assay: Growth of transformed BT3(ΔPPO) E. coli in LB liquid medium (OD600); format: cell-based, Halothece sp. PCC 7418; details: 37° C., OD600 over culture time
Procedure: In Example 3, herbicide resistance of respective BT3(ΔPPO) strains transformed with the wild-type AtPPO1, mutant AtPPO1, CyPPO2, CyPPO4 or CyPPO8 gene was investigated on agar media containing different herbicides, and in this Example, herbicide resistance of the strains was investigated in LB liquid media containing different herbicides.
HV-50 autoclave from Hirayama, HS2100A electronic scale from Hansung Instrument, CB-30V clean bench from Jeio Tech, JSI-200CL incubator from JSR, MQ-200 photometer from Apogee, and 1210 type UV-visible spectrophotometer from Thermo Fisher Scientific were used. The autoclave was used under conditions of 121° C. and 15 minutes, and the incubator was used at 37° C. with lighting of 160˜200 μmol m^−2s^−1 for a culture time of 13.5 hours. The UV-visible spectrophotometer was used at 600 nm.
Tiafenacil (M.W. 511.87 g/mol), Saflufenacil (M.W. 500.85 g/mol), and Fomesafen (M.W. 438.76 g/mol) used in the experiment were purchased from Dongbu Farm Hannong Co., Ltd, Sigma, and Sigma, respectively. […]
For seed culture of E. coli transformed with respective genes, single colonies thereof were cultured in 3 ml of LB broth containing chloramphenicol for 12 hours, and they were diluted with LB broth to absorbance (OD600) of 1.5. […] Absorbance (OD600) was measured using a spectrophotometer every 1.5 hours. […]

[2] = 70 nM Saflufenacil, or 35 nM Tiafenacil and 35 nM Saflufenacil

Compound	germination / growth on herbicide medium after 2 weeks (CyPPO2 transformants; [2])	germination / growth on herbicide medium after 2 weeks (CyPPO8 transformants; [2])	germination / growth on herbicide medium after 2 weeks [1, 2]	concentration by which the strain normally grew (CyPPO8)	germination / growth on herbicide medium after 2 weeks (CyPPO2 transformants; CyPPO2 and BAR gene-inserted, 50 uM glufosinate, or both)	seed germination (CyPPO2 transformants; ½ MS medium containing 70 nM tiafenacil, T2 generation lines no. 1 and 49)	germination / growth on herbicide medium after 2 weeks (CyPPO8 transformants; CyPPO8 and BAR gene-inserted, 50 uM glufosinate, or both)	seed germination (CyPPO8 transformants; ½ MS medium containing 70 nM tiafenacil, T2 generation lines no. 6, 16 and 40)	seed germination ([1]; ½ MS medium containing 50 nM tiafenacil)	seed germination ([1]; ½ MS medium containing 70 nM tiafenacil)	germination / growth on herbicide medium after 2 weeks ([1]; 50 uM glufosinate, or 70 nM Tiafenacil and 50 uM glufosinate)
CC(C)N(C)S(=O)(=O)NC(=O)c1cc(-n2c(=O)cc(C(F)(F)F)n(C)c2=O)c(F)cc1Cl [Saflufenacil]	normally grew	normally grew	not germinated	≤ 100 µM							
CS(=O)(=O)NC(=O)c1cc(Oc2ccc(C(F)(F)F)cc2Cl)ccc1[N+](=O)[O-] [Fomesafen]				≤ 100 µM							
COC(=O)CCNC(=O)C(C)Sc1cc(-n2c(=O)cc(C(F)(F)F)n(C)c2=O)c(F)cc1Cl (stereo not drawn) [Tiafenacil]	normally grew	normally grew	not germinated		normally grew	showed germination	normally grew	showed germination	reduced seed germination	no normal seed germination and was killed; also recorded: showed no germination	not germinated
